Consider 14 compounds from Sander's compilation of Henry's law constants (doi:10.1021/je970046g).

The series in a line: Henry solubility constant Hcp at 293 K (mol/(m3 Pa)). The conditions noted are these: reference: Hovorka and Dohnal (1997).

Take `BrCBr` [dibromomethane]: the “Henry solubility constant Hcp at 293 K” value is 0.015.
The result for `Clc1cccc(Cl)c1` [1,3-dichlorobenzene] reads 0.0047; that for `ClC(Cl)=C(Cl)Cl` [tetrachloroethene], 0.00084; that for `CC(Cl)(Cl)Cl` [1,1,1-trichloroethane], 0.00079.
For `BrC(Br)Br` [tribromomethane], the “Henry solubility constant Hcp at 293 K” value is 0.023.
For `ClCC(Cl)Cl` [1,1,2-trichloroethane], the “Henry solubility constant Hcp at 293 K” value was 0.015.
`ClCCl` [dichloromethane]: the “Henry solubility constant Hcp at 293 K” value came to 0.0051.
As for `ClC=C(Cl)Cl` [trichloroethene], the figure is 0.0013.
As for `CC(Cl)CCl` (centres undefined) [1,2-dichloropropane], the figure is 0.0046.
For `Clc1ccccc1` [chlorobenzene], the “Henry solubility constant Hcp at 293 K” value was 0.0035.
The result for `Brc1ccccc1` [bromobenzene] reads 0.0061; that for `ClCc1ccccc1` [(chloromethyl)-benzene], 0.028.
Turning to `Clc1ccc(Cl)cc1` [1,4-dichlorobenzene], the “Henry solubility constant Hcp at 293 K” value was determined as 0.0054.
For `ClC(Cl)C(Cl)Cl` [1,1,2,2-tetrachloroethane], the “Henry solubility constant Hcp at 293 K” value came to 0.03.
